Reference: PubChem BioAssay AID248 (DTP/NCI, 2004)
Values joined by “and” are separate entries in the source; they are usually repeats but may differ in a detail not shown here. Identical values can stand only once. Toxic doses and inconclusive results are not listed. No stated cut-off is given here; in the data, active means T/C of 150% or more; inactive means T/C below 125%.

System: L1210 leukemia ip in BDF1 mice, survival T/C
Experiment: NCI In Vivo Anticancer Drug Screen. Data for tumor model L1210 Leukemia (intraperitoneal) in B6D2F1 (BDF1) mice
Details: endpoint: mean survival time, higher = longer survival
Outline: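 In this screen, tumor-bearing mice given compound are compared to those given vehicle, and their survival values are reported as a treated-to-control quotient.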

[1] = dose: 100.0 mg/kg/injection, schedule: Q04DX003 (ip), vehicle: Klucel (hydroxypropylcellulose) (HPC)
[2] = dose: 100.0 mg/kg/injection, schedule: Q01DX009 (ip), vehicle: saline
[3] = dose: 100.0 mg/kg/injection, schedule: Q04DX003 (ip), vehicle: saline
[4] = dose: 200.0 mg/kg/injection, schedule: Q01DX009 (ip), vehicle: saline
[5] = dose: 25.0 mg/kg/injection, schedule: Q01DX009 (ip), vehicle: saline
[6] = dose: 50.0 mg/kg/injection, schedule: Q01DX009 (ip), vehicle: saline

Measured: T/C

CS(=O)(=O)OCCN(CCOS(C)(=O)=O)c1ccc(C=Nc2cc(Cl)c(O)c(Cl)c2)cc1
inactive: dose: 20.0 mg/kg/injection, schedule: Q04DX003 (ip), vehicle: Klucel (hydroxypropylcellulose) (HPC) 107 % of control | dose: 40.0 mg/kg/injection, schedule: Q04DX003 (ip), vehicle: Klucel (hydroxypropylcellulose) (HPC) 120 % of control | dose: 80.0 mg/kg/injection, schedule: Q04DX003 (ip), vehicle: Klucel (hydroxypropylcellulose) (HPC) 86 % of control | [1] 110 % of control

O=C(O)C1(C(=O)O)CCOCC1
inactive: dose: 50.0 mg/kg/injection, schedule: Q04DX003 (ip), vehicle: saline 93 % of control | [2] 104 % of control | [3] 98 % of control | [4] 102 % of control | dose: 200.0 mg/kg/injection, schedule: Q04DX003 (ip), vehicle: saline 104 % of control | dose: 400.0 mg/kg/injection, schedule: Q01DX009 (ip), vehicle: saline 96 % of control | dose: 400.0 mg/kg/injection, schedule: Q04DX003 (ip), vehicle: saline 103 % of control

C[N+]1(C)CCN(c2ccccc2)CC1
inactive: dose: 9.38 mg/kg/injection, schedule: Q01DX001 (ip), vehicle: saline 108 % of control | dose: 18.75 mg/kg/injection, schedule: Q01DX001 (ip), vehicle: saline 105 % of control

O=C1CCC(OC(=O)c2ccccc2)CC1
inactive: dose: 100.0 mg/kg/injection, schedule: Q01DX009 (ip), vehicle: Klucel (hydroxypropylcellulose) (HPC) 97 % of control | [1] 101 % of control | dose: 200.0 mg/kg/injection, schedule: Q01DX009 (ip), vehicle: Klucel (hydroxypropylcellulose) (HPC) 95 % of control | dose: 200.0 mg/kg/injection, schedule: Q04DX003 (ip), vehicle: Klucel (hydroxypropylcellulose) (HPC) 101 % of control | dose: 400.0 mg/kg/injection, schedule: Q01DX009 (ip), vehicle: Klucel (hydroxypropylcellulose) (HPC) 100 % of control | dose: 400.0 mg/kg/injection, schedule: Q04DX003 (ip), vehicle: Klucel (hydroxypropylcellulose) (HPC) 90 % of control

CCOC(=O)C(NC(=O)C(Cc1ccc(N(CCCl)CCCl)cc1)NC(C)=O)C(C)C (configuration not stated)
inactive: dose: 7.5 mg/kg/injection, schedule: Q01DX009 (ip), vehicle: alcohol 96 % of control | dose: 15.0 mg/kg/injection, schedule: Q01DX009 (ip), vehicle: alcohol 120 % of control | dose: 24.0 mg/kg/injection, schedule: Q01DX009 (ip), vehicle: carboxymethylcellulose (CMC) 96 % of control | [5] 98 % of control | dose: 30.0 mg/kg/injection, schedule: Q04DX003 (ip), vehicle: alcohol 110 % of control | dose: 36.0 mg/kg/injection, schedule: Q01DX009 (ip), vehicle: carboxymethylcellulose (CMC) 98 % of control | dose: 50.0 mg/kg/injection, schedule: Q01DX001 (ip), vehicle: saline 111 % of control | dose: 50.0 mg/kg/injection, schedule: Q01DX009 (ip), vehicle: carboxymethylcellulose (CMC) 104 % of control | [6] 101 % of control | dose: 50.0 mg/kg/injection, schedule: Q04DX003 (ip), vehicle: alcohol 110 % of control | dose: 75.0 mg/kg/injection, schedule: Q01DX009 (ip), vehicle: carboxymethylcellulose (CMC) 102 % of control | dose: 75.0 mg/kg/injection, schedule: Q04DX003 (ip), vehicle: alcohol 121 % of control | dose: 100.0 mg/kg/injection, schedule: Q01DX001 (ip), vehicle: saline 105 % of control | [2] 109 % of control | dose: 112.0 mg/kg/injection, schedule: Q01DX009 (ip), vehicle: alcohol 103 % of control and 108 % of control | dose: 112.0 mg/kg/injection, schedule: Q01DX009 (ip), vehicle: carboxymethylcellulose (CMC) 96 % of control | dose: 112.0 mg/kg/injection, schedule: Q04DX003 (ip), vehicle: alcohol 118 % of control | dose: 178.0 mg/kg/injection, schedule: Q01DX009 (ip), vehicle: carboxymethylcellulose (CMC) 107 % of control | dose: 178.0 mg/kg/injection, schedule: Q01DX015 (ip), vehicle: saline 103 % of control | dose: 200.0 mg/kg/injection, schedule: Q01DX001 (ip), vehicle: saline 105 % of control | dose: 267.0 mg/kg/injection, schedule: Q01DX009 (ip), vehicle: carboxymethylcellulose (CMC) 96 % of control | dose: 267.0 mg/kg/injection, schedule: Q01DX015 (ip), vehicle: saline 108 % of control | dose: 400.0 mg/kg/injection, schedule: Q01DX001 (ip), vehicle: saline 115 % of control | dose: 400.0 mg/kg/injection, schedule: Q01DX009 (ip), vehicle: carboxymethylcellulose (CMC) 98 % of control | dose: 400.0 mg/kg/injection, schedule: Q01DX015 (ip), vehicle: saline 106 % of control | dose: 600.0 mg/kg/injection, schedule: Q01DX009 (ip), vehicle: carboxymethylcellulose (CMC) 96 % of control | dose: 600.0 mg/kg/injection, schedule: Q01DX015 (ip), vehicle: saline 94 % of control

COc1cc(C)c(Cl)c(C)c1C#CC(=O)O
inactive: dose: 75.0 mg/kg/injection, schedule: Q01DX009 (ip), vehicle: Klucel (hydroxypropylcellulose) (HPC) 101 % of control | dose: 150.0 mg/kg/injection, schedule: Q01DX009 (ip), vehicle: Klucel (hydroxypropylcellulose) (HPC) 100 % of control

Cc1ccc(S(=O)(=O)O)cc1
inactive: dose: 12.5 mg/kg/injection, schedule: Q01DX009 (ip), vehicle: saline 101 % of control | [5] 98 % of control | [6] 98 % of control | [2] 97 % of control | dose: 100.0 mg/kg/injection, schedule: Q04DX002 (ip), vehicle: saline 97 % of control | [3] 102 % of control | [4] 96 % of control | dose: 200.0 mg/kg/injection, schedule: Q04DX002 (ip), vehicle: saline 101 % of control | dose: 400.0 mg/kg/injection, schedule: Q04DX002 (ip), vehicle: saline 108 % of control
